Test results from publication PMC11653257, “Organometallic Half-Sandwich Complexes of 8-Hydroxyquinoline-Derived Mannich Bases with Enhanced Solubility: Targeting Multidrug Resistant Cancer” (Inorganic Chemistry, 2024).

Assays:
MES-SA/Dx5 [1] = test: Cytotoxicity in triple coculture, MES-SA/Dx5 eGFP; assay type: cell-based, human
Description: (§1) Cell lines were purchased from the American Type Culture Collection (ATCC). MES-SA/B1 is a human MDR1-transfected derivative of MES-SA, and MES-SA mCherry, MES-SA/B1 mOrange, and MES-SA/Dx5 eGFP were engineered to stably express the respective fluorescent proteins previously.[62] Cells were kept in culture medium (DMEM) supplemented with 10% fetal bovine serum, 2 mM L-glutamine, 100 units/mL penicillin, and 100 μg/mL streptomycin (Thermo Fisher). One week before use, MES-SA/Dx5 eGFP cells were treated with 0.5 μM doxorubicin to ensure ABCB1/P-gp expression.
(§2) The tested compounds were dissolved in 50% (v/v) DMSO/PBS’ buffer to prepare 5–10 mM stock solutions, which were diluted in complete culture medium. Constitutive expression of the fluorescent proteins allowed multiplexing in cytotoxicity experiments.[62] Cells were mixed before seeding in 384-well plates: in double cocultures, MES-SA mCherry and MES-SA/Dx5 eGFP cells were seeded at 1250–1250 cells/well (in total 2500 cells/well); while in triple cocultures, MES-SA mCherry, MES-SA/Dx5 eGFP and MES-SA/B1 mOrange cells were seeded at 800–800–800 cells/well (in total 2400 cells/well). Serial dilutions of the compounds were added 24 h after seeding. To address the effect of P-gp function, TQ was added at a nontoxic concentration (0.4 μM) 15 min before the test compounds. The intensity of the fluorescent proteins, which is proportional to cell mass, was measured after 144 h of incubation at the respective fluorescent channels (excitation/emission: eGFP: 485 nm/510 nm; mOrange: 545 nm/567 nm; mCherry: 585 nm/610 nm). pIC50 values were calculated by a custom program written by Judit Sessler in C#.[62] IC50 values and standard deviation were calculated from average pIC50 values from at least 3 independent measurements.

MES-SA [2] = test: Cytotoxicity in triple coculture, MES-SA mCherry; assay type: cell-based, human; details: Homo sapiens, MES-SA/B1, MES-SA/Dx5, 144 h
Description: as §1, §2

MES-SA/B1 = test: Cytotoxicity in triple coculture, MES-SA/B1 mOrange; assay type: cell-based, human
Description: as §1, §2

[3] = test system: Escherichia coli (ATCC 25922); test: Antibacterial MIC, E. coli; assay type: cell-based; details: Mueller Hinton Broth, 37 °C, 18 h
Description: (§3) Escherichia coli (ATCC 25922) was used as Gram-negative strain and Staphylococcus aureus (ATCC 25923, methicillin-resistant (MRSA) ATCC 43300) strains were applied as Gram-positive bacterial cultures in the experiments. MIC values of the compounds were determined in 96-well plates based on the Clinical and Laboratory Standard Institute guidelines (CLSI guidelines).[76] The stock solutions of the compounds (same as those used for cytotoxicity experiments) were diluted in 100 μL of Mueller Hinton Broth. Then, 10^–4 dilution of an overnight bacterial culture in 100 μL of medium was added to each well, with the exception of the medium control wells.

[4] = target: human serum albumin (HSA), Trp214 / site I (Homo sapiens, UniProt P02768); test: HSA Trp214 fluorescence quenching; details: 1 μM HSA; λEX = 295 nm (Trp-214); pH 7.4 (PBS’); […]; 24 h
Description: (§4) Next, spectrofluorometric measurements were also performed to gain insight into the binding interactions that may occur in the hydrophobic binding sites of HSA. Tryptophan (Trp214) quenching experiments were conducted for the complexes (1–4) (for complex (3) see Figure S31) and their ligands). […] To monitor the binding at site II, site marker displacement experiments were performed using dansylglycine (DG).
(§5) Fluorescence measurements were carried out on a Fluoromax (Horiba Jobin Yvon, Longjumeau, France) spectrofluorometer using a 1 cm × 1 cm quartz cuvette. […] Excitation wavelengths were 295 nm for Trp-214 quenching and 340 nm for the DG displacement studies. The calculated conditional stability constants for HSA–complex species were obtained using the computer program HypSpec.[64] Calculations always were based on data obtained from at least two independent measurements.

[5] = Ligand displacement with 2,2′-bipyridine, conditional formation constant; assay type: physicochemical; details: pH 7.4; bpy competitor; UV–vis
From the text: These pKa (H2O) values are lower than those of the complexes formed with the corresponding amino acid hybrids (HQCl-D-Pro, HQCl-D-hPro, Figure S23). Thus, the predominant complex at pH 7.4 is [M(arene)(HL)(H2O)]^2+ in all cases, in which the bidentate ligand coordinates via the (N,O^–) donor set and the pyridinium or pyrrolidinium nitrogens are protonated just like in the isolated complexes (Chart 3). Based on the unchanged spectra (vide supra), these types of complexes show no dissociation at pH = 2, indicating their high stability and hindering the direct determination of the formation constants. Therefore, a ligand displacement experiment was performed using UV–vis spectrophotometry with 2,2′-bipyridine (bpy) as a competitor to determine conditional formation constants at pH = 7.4 (Figure S25). […] Nevertheless, these values indicate a high stability of the complexes in solution, and <1% of dissociation is estimated at 1 μM concentration at pH = 7.4. The ligand displacement measurement could not be applied to the RuCym complexes due to the release of the p-cymene ring followed by the formation of the mixed ligand complex with bpy and oxidation of the metal center (Figure S26), similarly to analogue complexes.[14],[26],[27]

[6] = target: human serum albumin (HSA), site II (Homo sapiens, UniProt P02768); test: HSA dansylglycine (DG) site marker displacement; details: cHSA = cDG = 1 μM; λEX = 335 nm (DG); pH 7.4 (PBS’); […]; 24 h
Description: as §4, §5

[7] = pKa of in situ prepared complexes by pH-potentiometry; assay type: physicochemical; details: I = 0.20 M KNO3
From the text: The results, shown in Table 2, indicate good agreement between the data obtained by the different methods. It should be noted that these processes show overlap in all cases, and therefore, the assignment of the pKa values to the given moieties cannot be made reliably. However, by comparing the spectral changes with those observed for HQ and other simple derivatives,[25] it can be concluded that the lower pKa likely belongs to the deprotonation of the aqua coligand.
The pH-potentiometric measurements were carried out at 25.0 ± 0.1 °C in water in the pH range between 2.0 and 11.5 and at a constant ionic strength of 0.20 M KNO3. The titrations were performed in a carbonate-free KOH solution (0.20 M). The exact concentrations of the HNO3 and KOH solutions were determined by pH-potentiometric titrations. An Orion 710A pH-meter equipped with a Metrohm combined electrode (type 6.0234.100) and a Metrohm 665 Dosimat buret were used for this purpose. […] The average water ionization constant, pKw, was determined as 13.76 ± 0.01, which is in good agreement with the literature data.[67] The initial volume of the samples was 10.0 mL. […] Samples were degassed by bubbling purified argon through them for about 10 min prior to the measurements, and the inert gas was also passed over the solutions during the titrations. The computer program Hyperquad2013[64] was utilized to establish the stoichiometry of the species and to calculate the equilibrium constants.

[8] = n-octanol/water distribution coefficient (shake-flask); assay type: physicochemical; details: pH 7.4, […]
Description: The exchange of the coligand (H2O/Cl^–) changes the overall charge of the complex, thus affecting lipophilicity. […] The traditional shake-flask method was used to obtain distribution coefficients of the ligands as well as of the complexes in n-octanol/buffered aqueous solution (20 mM phosphate, pH = 7.4) at different chloride ion concentrations (4, 24, and 100 mM) using UV–vis spectrophotometry (Agilent Cary 8454 diode array spectrophotometer, Santa Clara, CA, USA) for the analysis. The compounds were dissolved in buffered aqueous solutions previously saturated with n-octanol. Then the aqueous and n-octanol phases were gently mixed in different volume ratios (using 1:60 for the ligands, 1:1 for the RhCp* and 1:2 for the RuCym complexes ratios of n-octanol to buffered aqueous solution volume) for 4 h, followed by phase separation. Then the UV–vis spectrum of the aqueous or n-octanol phase was recorded and compared to the reference spectrum. Stock solutions were made in the aqueous phase, and distribution coefficients (DpH) were calculated by the following equation: [drawing 3]

MES-SA [9] = test: Cytotoxicity in double coculture, MES-SA mCherry; details: read-out: IC50 MES-SA; double coculture with MES-SA/Dx5; 144 h; without TQ
Description: (§6) Therefore, the novel half-sandwich complexes (1–4) and their corresponding ligands were tested against a coculture of MES-SA and MES-SA/Dx5 cells expressing the fluorescent proteins mCherry or eGFP, respectively.[62]
(§7) The tested compounds were dissolved in 50% (v/v) DMSO/PBS’ buffer to prepare 5–10 mM stock solutions, which were diluted in complete culture medium. Constitutive expression of the fluorescent proteins allowed multiplexing in cytotoxicity experiments.[62] […] Serial dilutions of the compounds were added 24 h after seeding. To address the effect of P-gp function, TQ was added at a nontoxic concentration (0.4 μM) 15 min before the test compounds. […] IC50 values and standard deviation were calculated from average pIC50 values from at least 3 independent measurements.

[10] = test system: Staphylococcus aureus (ATCC 25923); test: Antibacterial MIC, S. aureus; assay type: cell-based; details: Mueller Hinton Broth, 37 °C, 18 h
Description: as §3

[11] = test system: methicillin-resistant S. aureus (MRSA) ATCC 43300; test: Antibacterial MIC, MRSA; assay type: cell-based, Staphylococcus aureus; details: Mueller Hinton Broth, 37 °C, 18 h
Description: as §3

MES-SA/Dx5 [12] = test: Cytotoxicity in double coculture, MES-SA/Dx5 eGFP; details: for SR = IC50 (MES-SA)/IC50 (MES-SA/Dx5): double coculture; for IC50: read-out: IC50 MES-SA/Dx5, double coculture with MES-SA, 144 h
Description: as §6, §7

[13] = H2O/Cl– coligand exchange by UV–vis titration with chloride ions; assay type: physicochemical
Description: When the isolated complexes (1–4) are dissolved in water, their chlorido coligand can be replaced by water, or vice versa in the aqua complexes [M(arene)(HL)(H2O)]^2+, the H2O → Cl^– exchange process can take place in the presence of chloride ions. The chloride ion affinity of the complexes was also investigated by UV–vis spectrophotometry. RhCp* and RuCym complexes were titrated with chloride ions at pH 7.4 and 6.0, respectively. For this experiment, pH values were chosen at which the formation of the mixed hydroxido species is negligible. A representative spectrum series for complex (4) is shown in Figure S27, and the calculated conditional exchange constants (logK’ (H2O/Cl^–)) are given in Table 2 and in Figure S23. […] The complexes of the amino acid hybrids HQCl-D-Pro and HQCl-D-hPro have lower logK’ (H2O/Cl^–) constants most likely due to the repulsive effect of the nearby COO^– group.[26]

[14] = pKa of in situ prepared complexes by UV–vis titration; assay type: physicochemical; details: 1:1 system, absence of chloride, I = 0.20 M KNO3
From the text: The UV–vis spectra of the complexes prepared in situ were then followed at different pH values in the absence of chloride ions. No spectral changes were observed between pH = 2–6.3 (RuCym) or 7.5 (RhCp*), indicating high solution stability in both cases; however, the changes were significant in the basic pH range (Figure S22). In the case of RuCym complexes, two overlapping processes associated with the deprotonation of the coordinated water molecule and the noncoordinated Npyr/pipH^+ moiety were observed. […] The pKa values determined for these processes are shown in Table 2 and Figure S23 together with the values obtained for complexes formed with the amino acid hybrids HQCl-D-Pro and HQCl-D-hPro (Chart 2) for comparison.[26]
An Agilent Cary 8454 diode array spectrophotometer was utilized to obtain UV–vis spectra in the wavelength range 190–1100 nm. The path length (l) was 1 or 2 cm in most cases (the actual l is always indicated in the legends of the figures). The concentrations of the ligands and complexes were between 36 and 100 μM. The ligands were titrated in the presence of 10 equiv of EDTA. Individual samples contained 0–37 μM HSA, 0–206 μM MIM, 0–759 μM AHA, or 0–733 μM FHA. Spectra were always background and baseline corrected. The computer program HypSpec[64] was used to obtain stability constants.

human serum albumin (HSA), Trp214 / site I, sequence (P02768 25-609): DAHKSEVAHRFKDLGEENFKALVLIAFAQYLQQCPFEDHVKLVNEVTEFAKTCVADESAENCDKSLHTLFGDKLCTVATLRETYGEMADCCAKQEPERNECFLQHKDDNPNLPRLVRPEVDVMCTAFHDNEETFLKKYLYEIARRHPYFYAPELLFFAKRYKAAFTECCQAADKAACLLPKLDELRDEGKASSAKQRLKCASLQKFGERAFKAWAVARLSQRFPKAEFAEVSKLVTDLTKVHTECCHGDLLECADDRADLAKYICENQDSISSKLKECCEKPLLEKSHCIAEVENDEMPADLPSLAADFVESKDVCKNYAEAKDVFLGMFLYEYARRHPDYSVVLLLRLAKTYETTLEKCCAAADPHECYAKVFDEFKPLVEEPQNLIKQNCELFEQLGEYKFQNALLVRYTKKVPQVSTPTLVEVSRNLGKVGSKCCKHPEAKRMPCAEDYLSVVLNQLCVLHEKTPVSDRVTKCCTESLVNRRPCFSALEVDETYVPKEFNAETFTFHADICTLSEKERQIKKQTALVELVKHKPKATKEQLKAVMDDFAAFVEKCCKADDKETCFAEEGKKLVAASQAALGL
human serum albumin (HSA), site II, sequence (P02768 25-609): as above

Row | Compound | MIC [3] | logK’(quenching) [4] | logK’(DG) [6] | pKa (H2O) [7] | pKa (Npyr/pipH+) [7] | logD7.4 ([8]; c(Cl–) = 4 mM) | logD7.4 ([8]; c(Cl–) = 24 mM) | logD7.4 ([8]; c(Cl–) = 100 mM) | IC50 (MES-SA [9]) | MIC [10] | MIC [11] | SR = IC50 (MES-SA)/IC50 (MES-SA/Dx5) (MES-SA/Dx5 [12]; + 0.4 μM tariquidar (TQ)) | SR = IC50 (MES-SA)/IC50 (MES-SA/Dx5) (MES-SA/Dx5 [12]; without TQ) | IC50 (MES-SA/Dx5 [12]; without TQ) | other results
1 | COc1cc([C@@H]2c3cc4c(cc3[C@@H](O[C@@H]3O[C@@H]5CO[C@@H](C)O[C@H]5[C@H](O)[C@H]3O)[C@H]3COC(=O)[C@H]23)OCO4)cc(OC)c1O [etoposide] |  |  |  |  |  |  |  |  |  |  |  |  |  |  | SR Dx5 = IC50 (MES-SA)/IC50 (MES-SA/Dx5) (MES-SA/Dx5 [1]): 0.15; IC50 (MES-SA/Dx5 [1]; Homo sapiens, MES-SA/Dx5, 144 h): 1700 nM; IC50 (MES-SA [2]): 260 nM; SR B1 = IC50 (MES-SA)/IC50 (MES-SA/B1) (MES-SA/B1): 0.22
2 | Cc1c(C)c(C)[c-](C)c1C.[Cl-].[Cl-].[O-]c1c(C[NH+]2CCCC2)cc(Cl)c2cccnc12.[Rh+3] [(1), [RhCp*(HQCl-Pyr)Cl]Cl] | 50 µM | 5.1 ± 0.1 | 5.0 ± 0.1 | 9.35 ± 0.03 | 10.47 ± 0.03 | –0.11 ± 0.01 | +0.12 ± 0.01 | +0.22 ± 0.01 | 2.97 µM | 50 µM | 50 µM | 1.3 | 16.0 | 190 nM | logK’ [M(arene)L]7.4 conditional formation constant [5]: 12.06 ± 0.02; logK’ (H2O/Cl–) ([13]; RhCp* complexes titrated at pH 7.4): 2.23 ± 0.02
3 | [RuCym(HQCl-Pyr)Cl]Cl [(2)] | > 100 µM | 5.3 ± 0.2 | 5.2 ± 0.1 | 8.47 ± 0.04 | 10.40 ± 0.03 | –0.12 ± 0.02 | +0.23 ± 0.03 | +0.46 ± 0.02 | 8.97 µM | > 100 µM | > 100 µM | 0.1 | 3.2 | 2780 nM | pKa (H2O) [14]: 8.42 ± 0.03; pKa (Npyr/pipH+) [14]: 10.32 ± 0.03; logK’ (H2O/Cl–) ([13]; RuCym complexes titrated at pH 6.0): 1.60 ± 0.07
